Source: patent publication US20260250289A1, “BICYCLIC HETEROCYCLES AND THEIR USE AS WRN INHIBITORS” (Novartis AG, priority 2022, published 2026)
Where two headings read alike, the source gives them in different places.

Columns and labels:
[1] = tested on: SW48 cells; assay: Proliferation assay SW48 (CellTiterGlo); type: cell-based; conditions: Homo sapiens, SW48, 96 h, read-out: Proliferation Assay SW48 GI50
Description: (§1) The colon carcinoma cell lines SW48 (RRID: CVCL_1724), HCT 116 (RRID: CVCL_0291) and SNU-407 (RRID: CVCL_5058) were obtained from ATCC. The WRN-knockdown insensitive colon carcinoma cell line DLD-1 (RRID: CVCL_0248) was obtained from the Korean Cell Line Bank (KCLB), and used to generate a derivative in which the endogenous WRN gene copies were knocked out by CRISPR-mediated editing using standard CRISPR methods. The resulting cell line, DLD1-WRN-KO, was used to assess potential off-target compound effects.
SW48, SNU-407 and DLD1-WRN-KO cells were cultured in growth medium composed of RPMI-1640 (Amimed Cat #1-41F22-1), 2 mM L-Glutamine (Amimed Cat #5-10K50), 10 mM HEPES (Gibco Cat #15630-056), 1 mM sodium pyruvate (Amimed Cat #5-60F00-H), 1× Penicillin-Streptomycin (Amimed Cat #4-01F00-H) and 10% fetal calf serum (Amimed Cat #2-01F30-G, Lot #LB11566P). HCT 116 cells were cultured in growth medium composed of McCoys 5A (Amimed catalog #1-18F01-1), 2 mM L-Glutamine (Amimed Cat #5-10K50), 1× Penicillin-Streptomycin (Amimed Cat #4-01F00-H) and 10% fetal calf serum (Amimed Cat #2-01F30-G, Lot #LB11566P). All cells were maintained at 37° C. in a humidified 5% CO2 incubator.
Following filtration through a Steriflip-NY 20 μm filter (Millipore Cat #SCNY00020), trypsinized cells were seeded in 100 microliters growth medium at 2,000 (SW48) or 1,500 (SNU-407, DLD1-WRN-KO, HCT 116) cells/well into white, clear-bottom 96-well plates (Costar Cat #3903). Three replicate plates were prepared for each compound treatment condition. In addition, one plate (termed “day 0”) was prepared to quantify the number of viable cells at the time of compound addition. Following overnight incubation at 37° C. in a humidified 5% CO2 atmosphere, eight 3-fold serial dilutions of a given compound stock (obtained at a concentration of 10 mM in DMSO and stored at 4° C.) were dispensed directly into each of the triplicate assay plates using a HP 300D non-contact Digital Dispenser (TECAN). The final concentration of DMSO was normalized to 0.1% in all wells. 96 hours after compound addition, cellular ATP levels as a surrogate for cell viability was assessed following addition of 50 microliters CellTiterGlo (Promega Cat #G7573) reagent and luminescence quantification on a MPLEX multi-mode plate-reader (TECAN) following a 10 minute incubation at room temperature. The number of viable cells in the “day 0” plate were quantified identically on the day of compound addition.
For data analysis, the assay background signal that was determined in wells containing medium, but no cells, was subtracted from all other data points prior to further calculations. The extent of growth inhibition and potential cell kill was assessed by comparing the ATP levels (measured using CellTiterGlo, Promega) in compound-treated cells with those present at the time of compound addition. To this end, the following conditional concept was programmatically applied in HELIOS, an in-house software applying a multi-step decision tree to arrive at optimal concentration response curve fits (Gubler et al, SLAS DOI: 10.1177/2472555217752140) to calculate % growth (% G) for each compound-treated well: % G=(T−V0)/V0))*100 when T<V0, and % G=(T−V0)/(V−V0)))*100 when T≥V0, where V0 is the viability level at time of compound addition, while V and T represent vehicle-control and compound-treated viability levels, respectively, at the end of the compound incubation. 100%, 0% and −100% signify absence of growth inhibition, growth stasis, and complete cell kill, respectively. Compound concentrations leading to half-maximal growth inhibition (GI50) and residual cell viability at the highest tested compound concentration (Data (cmax), expressed in percent) were routinely calculated. Data analysis can also be carried out using commercially available software designed to derive IC50 values using 4-parameter fits (e.g. GraphPad Prism, XL fit). […]

[2] = target: T1, WRN helicase (aa N517-P1238) (Homo sapiens, UniProt Q14191); assay: WRN ATPase assay (DNA dependent ATP hydrolysis, ADP-Glo); type: biochemical; conditions: 3 hours pre-incubation, 300 micromolar ATP, FLAP26 DNA; geometric mean of at least 2
T1 construct: The core helicase motif of the WRN protein (aa N517-P1238) was produced for this assay; His (N); ZZ (N); 3C protease cleavage site (N); made in house; host or cells: Sf21 insect cells (baculovirus; virus and BIICs made in SF9)
Description: An ATPase assay was set up to measure the DNA dependent ATP hydrolysis activity of WRN helicase. This assay was used also to assess the inhibition properties of compounds of the invention on DNA dependent WRN ATPase activity.
The core helicase motif of the WRN protein (aa N517-P1238) was produced for this assay (protein production as described above). […] The ADP-Glo assay kit (Promega, Madison, WI) allowing the quantification of ADP produced in ATP hydrolysis reactions was used for setting up this assay.
Time course experiments were first performed in order to determine the best enzymatic assay conditions (including buffer conditions, reaction time and concentrations of protein, ATP and DNA substrates). A typical reaction consists of 10 nM WRN protein, 0.2 nM FLAP26, and 300 micromolar ATP in the following assay buffer: 30 mM Tris pH7.5, 2 mM MgCl2, 0.02% BSA, 50 mM NaCl, 0.1% pluronic F127 prepared in DNAse free water.
To evaluate the inhibition properties of compounds of the invention, serial dilutions were prepared in DMSO (10 half log dilutions from a 10 mM DMSO solution). […] The reaction was stopped with the addition of 5 microliters of the first ADP-Glo reagent and incubated for one hour to remove the excess amount of ATP. Afterwards, 10 microliters of ATP detection reagent was added and incubated for an additional hour before reading. Luminescence output was recorded using Tecan 1000 reader, with 5 minutes delay before reading. Each concentration of compound was tested in duplicates in the assay plate.
Following normalization of activity values for the wells to % inhibition (% inhibition=[(high control-sample)/(high control-low control)]×100), IC50 fitting was carried out from the duplicate determinations present on each plate according to [4]. Data analysis can also be carried out using commercially available software designed to derive IC50 values using 4-parameter fits (e.g. GraphPad Prism, XL fit). The reported IC50 values are the geometrical means of at least 2 independent replicates.

[3] = tested on: DLD1-WRN-KO cells; assay: Proliferation assay DLD1-WRN-KO (CellTiterGlo, off-target effects); type: cell-based; conditions: 96 hours, geometric mean of at least 2
Protocol: as §1, with “The” for “The colon carcinoma cell lines SW48 (RRID: CVCL_1724), HCT 116 (RRID: CVCL_0291) and SNU-407 (RRID: CVCL_5058) were obtained from ATCC. The”, “effects. […]” for “effects.”
Three replicate plates were prepared for each compound treatment condition. In addition, one plate (termed “day 0”) was prepared to quantify the number of viable cells at the time of compound addition. Following overnight incubation at 37° C. in a humidified 5% CO2 atmosphere, eight 3-fold serial dilutions of a given compound stock (obtained at a concentration of 10 mM in DMSO and stored at 4° C.) were dispensed directly into each of the triplicate assay plates using a HP 300D non-contact Digital Dispenser (TECAN). The final concentration of DMSO was normalized to 0.1% in all wells. 96 hours after compound addition, cellular ATP levels as a surrogate for cell viability was assessed following addition of 50 microliters CellTiterGlo (Promega Cat #G7573) reagent and luminescence quantification on a MPLEX multi-mode plate-reader (TECAN) following a 10 minute incubation at room temperature. The number of viable cells in the “day 0” plate were quantified identically on the day of compound addition.
For data analysis, the assay background signal that was determined in wells containing medium, but no cells, was subtracted from all other data points prior to further calculations. The extent of growth inhibition and potential cell kill was assessed by comparing the ATP levels (measured using CellTiterGlo, Promega) in compound-treated cells with those present at the time of compound addition. […] 100%, 0% and −100% signify absence of growth inhibition, growth stasis, and complete cell kill, respectively. Compound concentrations leading to half-maximal growth inhibition (GI50) and residual cell viability at the highest tested compound concentration (Data (cmax), expressed in percent) were routinely calculated. Data analysis can also be carried out using commercially available software designed to derive IC50 values using 4-parameter fits (e.g. GraphPad Prism, XL fit). The reported GI50 values are the geometrical means of at least 2 independent replicates.

[4] = SW48 colon carcinoma cells, 96 hours, CellTiterGlo, geometric mean of at least 2

T1 sequence (Q14191 517-1238): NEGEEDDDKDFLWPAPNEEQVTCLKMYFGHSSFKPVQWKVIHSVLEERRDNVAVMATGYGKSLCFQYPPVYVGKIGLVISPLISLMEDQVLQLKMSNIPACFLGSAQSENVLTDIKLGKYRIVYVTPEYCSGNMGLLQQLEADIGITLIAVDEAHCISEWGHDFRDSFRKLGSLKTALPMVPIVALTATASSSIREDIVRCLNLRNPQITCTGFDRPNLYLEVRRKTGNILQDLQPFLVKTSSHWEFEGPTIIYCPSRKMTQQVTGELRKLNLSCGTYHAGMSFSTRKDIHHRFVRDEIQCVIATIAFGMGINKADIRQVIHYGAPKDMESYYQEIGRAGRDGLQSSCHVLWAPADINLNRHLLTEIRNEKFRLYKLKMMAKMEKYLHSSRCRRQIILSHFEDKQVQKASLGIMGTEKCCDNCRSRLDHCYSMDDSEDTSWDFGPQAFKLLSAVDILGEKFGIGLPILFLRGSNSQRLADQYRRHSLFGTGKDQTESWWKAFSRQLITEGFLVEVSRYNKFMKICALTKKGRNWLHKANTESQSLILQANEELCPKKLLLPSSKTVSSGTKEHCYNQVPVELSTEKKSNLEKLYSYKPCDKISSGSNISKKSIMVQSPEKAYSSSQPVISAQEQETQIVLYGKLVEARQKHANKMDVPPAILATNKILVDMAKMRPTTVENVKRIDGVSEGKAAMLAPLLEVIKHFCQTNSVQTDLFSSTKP

SMILES	GI50 [1, 4] [nM]	GI50 [1] [nM]	IC50 [2] [nM]	GI50 [3] [nM]
CC(=O)N1CCC(c2c(C)n(CC(=O)Nc3ccc(C(F)(F)F)cc3)c3nc(C4=CCCCC4)nn3c2=O)CC1 [Example 145, 2-(6-(1-acetylpiperidin-4-yl)-2-(cyclohex-1-en-1-yl)-5-methyl-7-oxo-[1,2,4]triazolo[1,5-a]pyrimidin-4(7H)-yl)-N-(4-(trifluoromethyl)phenyl)acetamide]	2000	–	–	–
CCc1c(N2CCN(C(=O)c3nccc4cc[nH]c34)CC2)c(=O)n2nc(C3=CCOCC3)nc2n1CC(=O)Nc1ccc(C(F)(F)F)cc1C [Example 41, 2-(6-(4-(1H-pyrrolo[2,3-c]pyridine-7-carbonyl)piperazin-1-yl)-2-(3,6-dihydro-2H-pyran-4-yl)-5-ethyl-7-oxo-[1,2,4]triazolo[1,5-a]pyrimidin-4(7H)-yl)-N-(2-methyl-4-(trifluoromethyl)phenyl)acetamide]	–	100	–	–
CC(=O)N1CCN(c2c(C)n(CC(=O)Nc3ccc(Cl)c(Cl)c3)c3nc(-c4ccc(CN(C)C(=O)CCN=[N+]=[N-])cc4)nn3c2=O)CC1 [Example 86, N-(4-(6-(4-acetylpiperazin-1-yl)-4-(2-((3,4-dichlorophenyl)amino)-2-oxoethyl)-5-methyl-7-oxo-4,7-dihydro-[1,2,4]triazolo[1,5-a]pyrimidin-2-yl)benzyl)-3-azido-N-methylpropanamide]	–	–	70	> 10000
CC(=O)N1CCN(c2c(C)n(CC(=O)Nc3ccc(C(F)(F)F)cc3)c3nc(N4CCCCC4)nn3c2=O)CC1 [Example 111, 2-(6-(4-acetylpiperazin-1-yl)-5-methyl-7-oxo-2-(piperidin-1-yl)-[1,2,4]triazolo[1,5-a]pyrimidin-4(7H)-yl)-N-(4-(trifluoromethyl)phenyl)acetamide]	–	–	200	> 10000
CC(=O)N1CCN(c2nc3n(CC(=O)Nc4ccc(Cl)cc4)c(C)c(N4CCN(C(=O)c5n[nH]c(=O)[nH]5)CC4)c(=O)n3n2)CC1 [Example 8, 2-(2-(4-acetylpiperazin-1-yl)-5-methyl-7-oxo-6-(4-(5-oxo-4,5-dihydro-1H-1,2,4-triazole-3-carbonyl)piperazin-1-yl)-[1,2,4]triazolo[1,5-a]pyrimidin-4(7H)-yl)-N-(4-chlorophenyl)acetamide]	–	–	50	> 10000
CC(=O)N1CCN(c2c(C)n(CC(=O)Nc3ccc(C(F)(F)F)cc3)c3nc(C4=CCC5(CCO5)CC4)nn3c2=O)CC1 (stereo not drawn) [Example 117, 2-(6-(4-acetylpiperazin-1-yl)-5-methyl-7-oxo-2-(1-oxaspiro[3.5]non-6-en-7-yl)-[1,2,4]triazolo[1,5-a]pyrimidin-4(7H)-yl)-N-(4-(trifluoromethyl)phenyl)acetamide]	–	–	600	> 10000
CC(=O)N1CCN(c2c(C)n(CC(=O)Nc3ccc(Cl)c(Cl)c3)c3nc(C4=CCN(C(=O)OC(C)(C)C)CC4)nn3c2=O)CC1 [Example 75, tert-butyl 4-(6-(4-acetylpiperazin-1-yl)-4-(2-((3,4-dichlorophenyl)amino)-2-oxoethyl)-5-methyl-7-oxo-4,7-dihydro-[1,2,4]triazolo[1,5-a]pyrimidin-2-yl)-5,6-dihydropyridine-1(2H)-carboxylate]	–	–	200	900
CC(=O)N1CCN(c2nc3n(CC(=O)Nc4ccc(Cl)cc4)c(C)c(N4CCN(C(=O)c5nc[nH]c5C#N)CC4)c(=O)n3n2)CC1 [Example 7, 2-(2-(4-acetylpiperazin-1-yl)-6-(4-(5-cyano-1H-imidazole-4-carbonyl)piperazin-1-yl)-5-methyl-7-oxo-[1,2,4]triazolo[1,5-a]pyrimidin-4(7H)-yl)-N-(4-chlorophenyl)acetamide]	–	–	40	> 10000
CCc1ccc(NC(=O)Cn2c(C)c(C3CCN(C(C)=O)CC3)c(=O)n3nc(C4=CCOCC4)nc23)cc1Cl [Example 144, 2-(6-(1-acetylpiperidin-4-yl)-2-(3,6-dihydro-2H-pyran-4-yl)-5-methyl-7-oxo-[1,2,4]triazolo[1,5-a]pyrimidin-4(7H)-yl)-N-(3-chloro-4-ethylphenyl)acetamide]	3000	–	–	–
